From patent US10851064B2, “ACSS2 inhibitors and methods of use thereof” (METABOMED LTD., priority 2017, dated 2020)
“And” between values parts separate entries of the source, which are not always exact repeats. Identical values can stand only once.

Target: ACSS2 (Homo sapiens, UniProt Q9NR19)
Assay: biochemical
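Also: Cell-free human ACSS2 enzyme reaction with acetate, CoA and ATP, 90 min at 37 C, coupled to pyrophosphatase, phosphate release detected by Biomol Green absorbance at 620 nm.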

Sequence of ACSS2 (Q9NR19 whole entry): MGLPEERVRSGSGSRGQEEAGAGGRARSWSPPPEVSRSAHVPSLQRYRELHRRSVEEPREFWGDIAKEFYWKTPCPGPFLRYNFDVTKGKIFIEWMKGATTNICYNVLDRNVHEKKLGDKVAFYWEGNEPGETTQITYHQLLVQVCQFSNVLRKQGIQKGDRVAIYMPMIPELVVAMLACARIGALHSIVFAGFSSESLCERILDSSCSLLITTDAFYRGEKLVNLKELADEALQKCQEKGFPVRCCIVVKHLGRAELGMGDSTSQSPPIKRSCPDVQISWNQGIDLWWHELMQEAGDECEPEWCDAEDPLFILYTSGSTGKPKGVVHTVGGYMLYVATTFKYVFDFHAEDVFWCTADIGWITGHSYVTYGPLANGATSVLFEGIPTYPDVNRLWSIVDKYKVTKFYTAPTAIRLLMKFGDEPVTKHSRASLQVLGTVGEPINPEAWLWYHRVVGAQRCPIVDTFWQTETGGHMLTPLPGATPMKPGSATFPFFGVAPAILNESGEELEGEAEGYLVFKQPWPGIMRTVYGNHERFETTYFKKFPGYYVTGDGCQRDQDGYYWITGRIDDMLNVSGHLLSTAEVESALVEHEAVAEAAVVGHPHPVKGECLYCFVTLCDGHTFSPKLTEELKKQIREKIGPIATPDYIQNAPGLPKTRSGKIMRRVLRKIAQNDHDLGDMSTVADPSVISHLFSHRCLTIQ

Row | IC50 | Structure (SMILES)
1 | 0.1 to 1 µM | CC1=NN(c2ccccc2)C(=O)C1C(=O)Nc1cccc(C(C)C)c1 (stereo not shown) [compound 100, N-(3-isopropylphenyl)-3-methyl-5-oxo-1-phenyl-4,5-dihydro-1H-pyrazole-4-carboxamide]
2 | 0.006 to 0.1 µM | CC1=NN(c2ccccc2)C(=O)C1C(=O)Nc1cccc(-c2cccs2)c1 (stereo not shown) [compound 101, 3-methyl-5-oxo-1-phenyl-N-(3-(thiophen-2-yl)phenyl)-4,5-dihydro-1H-pyrazole-4-carboxamide]
3 | 0.1 to 1 µM | CC1=NN(c2ccccc2)C(=O)C1C(=O)Nc1cccc(-c2ccccc2)c1 (stereo not shown) [compound 102, N-([1,1′-biphenyl]-3-yl)-3-methyl-5-oxo-1-phenyl-4,5-dihydro-1H-pyrazole-4-carboxamide]
4 | 0.1 to 1 µM and 0.006 to 0.1 µM | COCc1cccc(NC(=O)C2C(=O)N(c3ccccc3)N=C2C)c1 (stereo not shown) [compound 103, N-(3-(methoxymethyl)phenyl)-3-methyl-5-oxo-1-phenyl-4,5-dihydro-1H-pyrazole-4-carboxamide]
5 | 1 to 100 µM | CC1=NN(c2ccccc2)C(=O)C1C(=O)Nc1cccc(-c2ccncc2)c1 (stereo not shown) [compound 104, 3-methyl-5-oxo-1-phenyl-N-(3-(pyridin-4-yl)phenyl)-4,5-dihydro-1H-pyrazole-4-carboxamide]
6 | 1 to 100 µM | CC1=NN(c2ccccc2)C(=O)C1C(=O)Nc1ccc(S(=O)(=O)N(C)C)cc1 (stereo not shown) [compound 105, N-(4-(N,N-dimethylsulfamoyl)phenyl)-3-methyl-5-oxo-1-phenyl-4,5-dihydro-1H-pyrazole-4-carboxamide]
7 | > 100 µM | CC1=NN(c2ccccc2)C(=O)C1C(=O)NC1CCOC1 (stereo not shown) [compound 106, 3-methyl-5-oxo-1-phenyl-N-(tetrahydrofuran-3-yl)-4,5-dihydro-1H-pyrazole-4-carboxamide]
8 | 0.1 to 1 µM | CC1=NN(c2ccc(S(=O)(=O)N(C)C)cc2)C(=O)C1C(=O)Nc1ccccc1 (stereo not shown) [compound 110, 1-(4-(N,N-dimethylsulfamoyl)phenyl)-3-methyl-5-oxo-N-phenyl-4,5-dihydro-1H-pyrazole-4-carboxamide]
9 | 1 to 100 µM | CC1=NN(c2ccccc2)C(=O)C1C(=O)Nc1cccc(CO)c1 (stereo not shown) [compound 111, N-(3-(hydroxymethyl)phenyl)-3-methyl-5-oxo-1-phenyl-4,5-dihydro-1H-pyrazole-4-carboxamide]
10 | 1 to 100 µM | CC1=NN(c2ccccc2)C(=O)C1C(=O)NC1CCOCC1 (stereo not shown) [compound 112, 3-methyl-5-oxo-1-phenyl-N-(tetrahydro-2H-pyran-4-yl)-4,5-dihydro-1H-pyrazole-4-carboxamide]
11 | 0.006 to 0.1 µM | CCOC(=O)c1cccc(NC(=O)C2C(=O)N(c3ccccc3)N=C2C)c1 (stereo not shown) [compound 113, Ethyl 3-(3-methyl-5-oxo-1-phenyl-4,5-dihydro-1H-pyrazole-4-carboxamido)benzoate]
12 | 0.1 to 1 µM | CC1=NN(c2ccccc2)C(=O)C1C(=O)Nc1cccc(C(C)(C)C)c1 (stereo not shown) [compound 115, N-(3-(tert-butyl)phenyl)-3-methyl-5-oxo-1-phenyl-4,5-dihydro-1H-pyrazole-4-carboxamide]
13 | 1 to 100 µM | CC1=NN(c2ccccc2)C(=O)C1C(=O)Nc1cccc(C(=O)O)c1 (stereo not shown) [compound 116, 3-(3-methyl-5-oxo-1-phenyl-4,5-dihydro-1H-pyrazole-4-carboxamido)benzoic acid]
14 | 1 to 100 µM | CCCCCc1cccc(NC(=O)C2C(=O)N(c3ccccc3)N=C2C)c1 (stereo not shown) [compound 118, 3-methyl-5-oxo-N-(3-pentylphenyl)-1-phenyl-4,5-dihydro-1H-pyrazole-4-carboxamide]
15 | 0.1 to 1 µM | CC(=O)c1cccc(NC(=O)C2C(=O)N(c3ccc(C(=O)O)cc3)N=C2C)c1 (stereo not shown) [compound 120, 4-(4-((3-acetylphenyl)carbamoyl)-3-methyl-5-oxo-4,5-dihydro-1H-pyrazol-1-yl)benzoic acid]
16 | 1 to 100 µM | CC1=NN(c2ccccc2)C(=O)C1C(=O)NC1CCNCC1 (stereo not shown) [compound 121, 3-methyl-5-oxo-1-phenyl-N-(4-piperidyl)-4H-pyrazole-4-carboxamide]
17 | 1 to 100 µM | CC1=NN(c2ccccc2)C(=O)C1C(=O)Nc1ccc2c(c1)C(=O)OC2 (stereo not shown) [compound 122, 3-methyl-5-oxo-N-(3-oxo-1,3-dihydroisobenzofuran-5-yl)-1-phenyl-4,5-dihydro-1H-pyrazole-4-carboxamide]
18 | 0.1 to 1 µM | CC(=O)c1cccc(NC(=O)C2C(=O)N(c3cccc(C(=O)O)c3)N=C2C)c1 (stereo not shown) [compound 123, 3-(4-((3-acetylphenyl)carbamoyl)-3-methyl-5-oxo-4,5-dihydro-1H-pyrazol-1-yl)benzoic acid]
19 | 0.1 to 1 µM | CCc1cccc(NC(=O)C2C(=O)N(c3ccncc3)N=C2C)c1 (stereo not shown) [compound 125, N-(3-ethylphenyl)-3-methyl-5-oxo-1-(pyridin-4-yl)-4,5-dihydro-1H-pyrazole-4-carboxamide]
20 | 1 to 100 µM | CCc1cccc(NC(=O)C2C(=O)N(c3ccccc3)N=C2c2ccccc2)c1 (stereo not shown) [compound 126, N-(3-ethylphenyl)-5-oxo-1,3-diphenyl-4,5-dihydro-1H-pyrazole-4-carboxamide]

Row | IC50 | Structure (SMILES)
21 | 0.006 to 0.1 µM | CCc1cccc(NC(=O)C2C(=O)N(c3ccc(C(F)(F)F)cc3)N=C2C)c1 (stereo not shown) [compound 127, N-(3-ethylphenyl)-3-methyl-5-oxo-1-(4-(trifluoromethyl)phenyl)-4,5-dihydro-1H-pyrazole-4-carboxamide]
22 | 1 to 100 µM | CCc1cccc(NC(=O)C2C(=O)N(c3ccccc3)N=C2C(C)C)c1 (stereo not shown) [compound 128, N-(3-ethylphenyl)-3-isopropyl-5-oxo-1-phenyl-4,5-dihydro-1H-pyrazole-4-carboxamide]
23 | 1 to 100 µM | CCc1cccc(NC(=O)C2C(=O)N(c3ccccc3)N=C2Cc2ccccc2)c1 (stereo not shown) [compound 129, 3-benzyl-N-(3-ethylphenyl)-5-oxo-1-phenyl-4,5-dihydro-1H-pyrazole-4-carboxamide]
24 | 1 to 100 µM | CCc1cccc(NC(=O)C2C(=O)N(c3ccccc3)N=C2C(F)(F)F)c1 (stereo not shown) [compound 130, N-(3-ethylphenyl)-5-oxo-1-phenyl-3-(trifluoromethyl)-4,5-dihydro-1H-pyrazole-4-carboxamide]
25 | 1 to 100 µM | CC1=NN(c2ccccc2)C(=O)C1C(=O)Nc1cccc(CN(C)C)c1 (stereo not shown) [compound 131, N-(3-((dimethylamino)methyl)phenyl)-3-methyl-5-oxo-1-phenyl-4,5-dihydro-1H-pyrazole-4-carboxamide]
26 | 0.1 to 1 µM | CC1=NN(c2ccccc2)C(=O)C1C(=O)Nc1cccc(-c2cncnc2)c1 (stereo not shown) [compound 132, 3-methyl-5-oxo-1-phenyl-N-(3-(pyrimidin-5-yl)phenyl)-4,5-dihydro-1H-pyrazole-4-carboxamide]
27 | 0.1 to 1 µM | CCc1cccc(NC(=O)C2C=NN(c3ccccc3)C2=O)c1 (stereo not shown) [compound 133, N-(3-ethylphenyl)-5-oxo-1-phenyl-4,5-dihydro-1H-pyrazole-4-carboxamide]
28 | 1 to 100 µM | CCOc1ccc(N2N=C(C)C(C(=O)Nc3cccc(CC)c3)C2=O)cc1 (stereo not shown) [compound 134, 1-(4-ethoxyphenyl)-N-(3-ethylphenyl)-3-methyl-5-oxo-4,5-dihydro-1H-pyrazole-4-carboxamide]
29 | 0.1 to 1 µM | CCOC(=O)c1cc(NC(=O)C2C(=O)N(c3ccccc3)N=C2C)ccn1 (stereo not shown) [compound 135, ethyl 4-(3-methyl-5-oxo-1-phenyl-4,5-dihydro-1H-pyrazole-4-carboxamido)picolinate]
30 | 1 to 100 µM | CCC1=NN(c2ccccc2)C(=O)C1C(=O)Nc1cccc(CC)c1 (stereo not shown) [compound 136, 3-ethyl-N-(3-ethylphenyl)-5-oxo-1-phenyl-4,5-dihydro-1H-pyrazole-4-carboxamide]
31 | 1 to 100 µM | CCc1cccc(NC(=O)C2C(=O)N(c3ccccc3)N=C2c2ccncc2)c1 (stereo not shown) [compound 137, N-(3-ethylphenyl)-5-oxo-1-phenyl-3-(pyridin-4-yl)-4,5-dihydro-1H-pyrazole-4-carboxamide]
32 | 0.1 to 1 µM | CC1=NN(c2ccccc2)C(=O)C1C(=O)Nc1cccc(S(=O)(=O)N(C)C)c1 (stereo not shown) [compound 139, N-(3-(N,N-dimethylsulfamoyl)phenyl)-3-methyl-5-oxo-1-phenyl-4,5-dihydro-1H-pyrazole-4-carboxamide]
33 | 0.006 to 0.1 µM | CCc1cccc(NC(=O)C2C(=O)N(c3ccc(OCC4CC4)cc3)N=C2C)c1 (stereo not shown) [compound 143, 1-(4-(cyclopropylmethoxy)phenyl)-N-(3-ethylphenyl)-3-methyl-5-oxo-4,5-dihydro-1H-pyrazole-4-carboxamide]
34 | 0.1 to 1 µM | CCc1cccc(NC(=O)C2C(=O)N(c3ccc(NC(C)=O)cc3)N=C2C)c1 (stereo not shown) [compound 144, 1-(4-acetamidophenyl)-N-(3-ethylphenyl)-3-methyl-5-oxo-4,5-dihydro-1H-pyrazole-4-carboxamide]
35 | 0.1 to 1 µM | CC1=NN(c2ccccc2)C(=O)C1C(=O)Nc1cccc(C2CCCC2)c1 (stereo not shown) [compound 146, N-(3-cyclopentylphenyl)-3-methyl-5-oxo-1-phenyl-4,5-dihydro-1H-pyrazole-4-carboxamide]
36 | 0.1 to 1 µM | CC1=NN(c2ccccc2)C(=O)C1C(=O)Nc1cccc(CC(C)C)c1 (stereo not shown) [compound 147, N-(3-isobutylphenyl)-3-methyl-5-oxo-1-phenyl-4,5-dihydro-1H-pyrazole-4-carboxamide]
37 | 0.006 to 0.1 µM | CC1=NN(c2ccc(C(F)(F)F)cc2)C(=O)C1C(=O)Nc1cccc(-c2ncc[nH]2)c1 (stereo not shown) [compound 148, N-(3-(1H-imidazol-2-yl)phenyl)-3-methyl-5-oxo-1-(4-(trifluoromethyl)phenyl)-4,5-dihydro-1H-pyrazole-4-carboxamide]
38 | 0.006 to 0.1 µM | CC1=NN(c2ccc(C(F)(F)F)cc2)C(=O)C1C(=O)Nc1cccc(-c2cnccn2)c1 (stereo not shown) [compound 150, 3-methyl-5-oxo-N-(3-(pyrazin-2-yl)phenyl)-1-(4-(trifuoromethyl)phenyl)-4,5-dihydro-1H-pyrazole-4-carboxamide]
39 | 1 to 100 µM | CC1=NN(c2ccccc2)C(=O)C1C(=O)Nc1cccc(C(=O)C(F)(F)F)c1 (stereo not shown) [compound 152, 3-methyl-5-oxo-1-phenyl-N-(3-(2,2,2-trifluoroacetyl)phenyl)-4,5-dihydro-1H-pyrazole-4-carboxamide]
40 | 0.1 to 1 µM | CCc1cccc(NC(=O)C2C(=O)N(c3ccc([N+](=O)[O-])cc3)N=C2C)c1 (stereo not shown) [compound 153, N-(3-ethylphenyl)-3-methyl-1-(4-nitrophenyl)-5-oxo-4,5-dihydro-1H-pyrazole-4-carboxamide]
